What was measured:
[1] = target: T1, R155K mutant of the HCV NS3/4A 1b protease enzyme (Hepatitis C virus genotype 1b, UniProt P26663, R1181K); assay: HCV Protease FRET Assay (IC50_APP), R155K mutant; assay type: biochemical; settings: apparent IC50, R155K mutant; read-out: IC50_APP, HCV R155K
T1 construct: 10× stocks of NS3/4A protease enzyme from Bioenza (Mountain View, Calif.); purchased Bioenza (Mountain View, Calif.)
Procedure: (§1) HCV Protease FRET Assay for WT and Mutated NS3/4A 1b Enzymes (IC50—APP).
(§2) The following protocol was used to generate “apparent” IC50 (IC50—APP) values as depicted in Table 6, below. […] 5 μL of each enzyme were added to Corning (#3575) 384-well, black, microtiter plates (Corning, N.Y.) after spotting a 0.5 μL volume of 50% DMSO and serially diluted compounds prepared in 50% DMSO. Protease reactions were immediately started after enzyme addition with the addition of 45 μL of the FRET substrate and monitored for 60-90 minutes at λex485/λem520 in a Synergy^4 plate reader from BioTek (Winooski, Vt.). At the conclusion of each assay, progress curves from each well were examined for linear reaction kinetics and fit statistics (R^2, 95% confidence intervals, absolute sum of squares).
(§3) The compound numbers correspond to the compound numbers in Table 3. […] ;

[2] = target: T2, A156T mutant of the HCV NS3/4A 1b protease enzyme (Hepatitis C virus genotype 1b, UniProt P26663, A1182T); assay: HCV Protease FRET Assay (IC50_APP), A156T mutant; assay type: biochemical; settings: apparent IC50, A156T mutant; read-out: IC50_APP, HCV A156T
T2 construct: 10× stocks of NS3/4A protease enzyme from Bioenza (Mountain View, Calif.); purchased Bioenza (Mountain View, Calif.)

[3] = target: T3, C159S mutant of the HCV NS3/4A 1b protease enzyme (Hepatitis C virus genotype 1b, UniProt P26663, C1185S); assay: HCV Protease FRET Assay (IC50_APP), C159S mutant; assay type: biochemical; settings: apparent IC50, C159S mutant
T3 construct: 10× stocks of NS3/4A protease enzyme from Bioenza (Mountain View, Calif.); purchased Bioenza (Mountain View, Calif.)
Procedure: as §1, §2, §3

[4] = target: T4, D168A mutant of the HCV NS3/4A 1b protease enzyme (Hepatitis C virus genotype 1b, UniProt P26663, D1194A); assay: HCV Protease FRET Assay (IC50_APP), D168A mutant; assay type: biochemical; settings: apparent IC50, D168A mutant; read-out: IC50_APP, HCV D168A
T4 construct: 10× stocks of NS3/4A protease enzyme from Bioenza (Mountain View, Calif.); purchased Bioenza (Mountain View, Calif.)

[5] = target: T5, wild type HCV NS3/4A 1b protease enzyme (Hepatitis C virus genotype 1b, UniProt P26663); assay: HCV Protease FRET Assay (IC50_APP), wild type; assay type: biochemical; settings: read-out: IC50_APP, WT; apparent IC50, wild type NS3/4A 1b
T5 construct: 10× stocks of NS3/4A protease enzyme from Bioenza (Mountain View, Calif.); purchased Bioenza (Mountain View, Calif.)

[6] = test system: HCV RNA replicon in cell line ET (luc-ubi-neo/ET), human Huh7 hepatoma; assay: Luciferase Assay (Example 35), replicon-derived luciferase activity; assay type: cell-based; settings: Hepatitis C virus, Huh-7; assay described in Example 35
Procedure: The compounds were assayed to evaluate the antiviral activity and cytotoxicity of compounds using replicon-derived luciferase activity. This assay used the cell line ET (luc-ubi-neo/ET), which is a human Huh7 hepatoma cell line that contains an HCV RNA replicon with a stable luciferase (Luc) reporter and cell culture-adaptive mutations. The ET cell line was grown in a 5% CO2 incubator at 37° C. in Dulbecco's modified essential media (DMEM) supplemented with 2 mM L-glutamine, nonessential amino acids, 100 U of penicillin/ml, 100 μg of streptomycin/mL, and 10% fetal bovine serum. G418 (Geneticin; Invitrogen) was added at a final concentration of 400 ug//mL.
All cell culture reagents were obtained from Invitrogen (Carlsbad). Cells were trypsinized (1% trypsin:EDTA) and plated out at 5×10^3 cells/well in white 96-well assay plates (Costar) dedicated to cell number (cytotoxicity) or antiviral activity assessments. Test compounds were added at six 3-fold concentrations each and the assay was run in DMEM, 5% FBS, 1% pen-strep, 1% glutamine, 1% non essential amino acid. Human interferon alpha-2b (PBL Biolabs, New Brunswick, N.J.) was included in each run as a positive control compound. Cells were processed 72 hr post test compound addition when the cells were still subconfluent. Antiviral activity was measured by analyzing replicon-derived luciferase activity using the Steady-Glo Luciferase Assay System (Promega, Madison, Wis.) according to manufacturer's instruction. The number of cells in each well was determined by Cell Titer Blue Assay (Promega). Compound profile was derived by calculating applicable EC50 (effective concentration inhibiting virus replication by 50%), EC90 (effective concentration inhibiting virus replication by 90%), IC50 (concentration decreasing cell viability by 50%) and SI50 (selective index: […]) values.

Row | Structure (SMILES) | IC50 [1] [µM] | IC50 [2] [µM] | IC50 [3] [µM] | IC50 [4] [µM] | IC50 [5] [µM] | EC50 [6] [µM]
1 | C=CC(=O)N[C@H](CC(C)C)C(=O)N1C[C@H](Oc2nccc3cc(OC)ccc23)C[C@H]1C(=O)N[C@]1(C(=O)NS(=O)(=O)C2CC2)C[C@H]1C=C [Compound I-105] | 0.01 to 0.1 | < 0.01 | 0.1 to 1 | 0.1 to 1 | < 0.01 | 0.01 to 0.1
2 | C=CC(=O)N[C@H](Cc1ccccc1)C(=O)N1C[C@H](Oc2nccc3cc(OC)ccc23)C[C@H]1C(=O)N[C@]1(C(=O)NS(=O)(=O)C2CC2)C[C@H]1C=C [Compound I-106] | 0.01 to 0.1 | < 0.01 | 0.1 to 1 | 0.1 to 1 | < 0.01 | 0.01 to 0.1
3 | C=CC1CC1(NC(=O)C1CC(n2nnc(-c3ccc(OC)cc3)n2)CN1C(=O)C(CCC(=O)C=C(C)C)NC(=O)OC(C)(C)C)C(=O)NS(=O)(=O)C1CC1 (centres unmarked) [Compound I-107] | 1 to 10 |  | 0.01 to 0.1 | 1 to 10 | < 0.01 | 0.1 to 1
4 | C=CC(=O)NCC(NC(=O)OC(C)(C)C)C(=O)N1CC(n2nnc(-c3ccc(OC)cc3)n2)CC1C(=O)NC1(C(=O)NS(=O)(=O)C2CC2)CC1C=C (centres unmarked) [Compound I-108] | 1 to 10 |  | 0.1 to 1 | 1 to 10 | < 0.01 | 0.1 to 1
5 | C=CC(=O)NC[C@H](NC(=O)OC(C)(C)C)C(=O)N1C[C@H](Oc2nc3ccccc3nc2-c2cccs2)C[C@H]1C(=O)N[C@]1(C(=O)NS(=O)(=O)C2CC2)C[C@H]1C=C [Compound I-109] | 0.1 to 1 |  | 0.1 to 1 | 1 to 10 | < 0.01 | 0.1 to 1
6 | C=C[C@@H]1C[C@]1(NC(=O)[C@@H]1C[C@@H](Oc2nc3ccccc3nc2-c2cccs2)CN1C(=O)[C@H](CCC(=O)C=C(C)C)NC(=O)OC(C)(C)C)C(=O)NS(=O)(=O)C1CC1 [Compound I-110] | 0.1 to 1 |  | 0.01 to 0.1 | 1 to 10 | < 0.01 | 0.01 to 0.1

— patent US8309685B2 (Celgene Avilomics Research, Inc., priority 2007, dated 2012)
